Assay results from US9066516B2, “Uses of thaxtomin and thaxtomin compositions as herbicides” (priority 2008, dated 2015).

Tests used:
Assay type in all cases: in vivo
[1] = tested on: Mustard (Brassica juncea); assay: Pre-emergence test of MBI-005, lab (Example 12); conditions: pre-emergent
Procedure: (§1) To further describe the spectrum of pre-emergence activity, tests were conducted in laboratory and field conditions. In laboratory testing, 35 seeds were placed on a ring of blotter paper inside a 3 cm petri dish and supplied with 4 ml of MBI-005 (≦0.1 mg MBI-005/ml). Water was used as a negative control and oryzalin applied as a positive control. Petri dishes were randomly placed in a growth room at 25° C. and 50% RH. Treatments were replicated three times and germinated seeds were counted 7 and 14 days after application; water was added as necessary to maintain moisture levels inside each petri dish.

[2] = tested on: Canarygrass (Phalaris minior); assay: Pre-emergence test of MBI-005, lab (Example 12); conditions: pre-emergent; note: ranges in brackets are in %
Procedure: as §1

[3] = tested on: Ragweed (Ambrosia artemisifolia); assay: Pre-emergence test of MBI-005, lab (Example 12); conditions: pre-emergent; note: ranges in brackets are in %
Procedure: as §1

[4] = tested on: Buckhorn plantain (Plantago lanceolata); assay: Pre-emergence test of MBI-005, lab (Example 12); conditions: pre-emergent; note: ranges in brackets are in %
Procedure: as §1

[5] = tested on: Horseweed (R) (Conyza canadensis); assay: Pre-emergence test of MBI-005, lab (Example 12); conditions: pre-emergent, herbicide resistant population; note: ranges in brackets are in %
Procedure: as §1

[6] = tested on: Black nightshade (Solanum nigrum); assay: Pre-emergence test of MBI-005, lab (Example 12); conditions: pre-emergent; note: ranges in brackets are in %
Procedure: as §1

[7] = tested on: Palmer pigweed (R) (Amaranthus palmerii); assay: Pre-emergence test of MBI-005, lab (Example 12); conditions: pre-emergent, herbicide resistant population; note: ranges in brackets are in %
Procedure: as §1

[8] = tested on: Fall Panicum (Panicum dichotomiflorum); assay: Pre-emergence test of MBI-005, lab (Example 12); conditions: pre-emergent; note: ranges in brackets are in %
Procedure: as §1

[9] = tested on: Clover (Trifolium repens); assay: Pre-emergence test of MBI-005, lab (Example 12); conditions: pre-emergent; note: ranges in brackets are in %
Procedure: as §1

[10] = tested on: Ryegrass (Lolium perenne); assay: Pre-emergence test of MBI-005, lab (Example 12); conditions: pre-emergent; note: ranges in brackets are in %
Procedure: as §1

[11] = tested on: Barnyardgrass (Echinochloa crus-gali); assay: Pre-emergence test of MBI-005, lab (Example 12); conditions: pre-emergent; note: ranges in brackets are in %
Procedure: as §1

broad-leaf mustard = assay: Greenhouse synergy test MBI-005 + commercial herbicides (Example 11); conditions: 14 days
Procedure: (§2) The test species barnyard grass, ragweed, sedge, and broad-leaf mustard were used for the valuation of synergy between MBI-005 and the rice herbicides clomazone, penoxsulam, cyhalofop, fenoxaprop-p-ethyl, bispyribac-sodium, thiobencarb, and propanil.
(§3) There were 3 replicates per treatment which were sprayed with approximately ⅔ ml per replicate. The treatments were completely randomized and kept in a greenhouse at 25° C. The efficacy was rated at 7 and 14 days post treatment.

sedge = assay: as above; conditions: 14 days
Procedure: as §2, §3

barnyard grass [12] = assay: as above; conditions: 14 days
Procedure: as §2, §3

Rice (variety M209) = assay: Field study on rice, yield (Example 6); conditions: Thaxtomin A 180 g/acre
Procedure: The efficacy of thaxtomin A derived from a liquid culture of S. acidiscabies is tested in a field study on rice using 4.9 sq-ft plots surrounded by a metal ring. Treatments with either thaxtomin A or thaxtomin A in combination with lemongrass oil (formulated as GreenMatch EX) or cyhalofop (formulated as Clincher CA) were done using a hand-held sprayer with a water volume corresponding to 57 gallons per acre. Rice (variety M209) was grown until maturity and harvested by hand for yield and weed count assessment. Results of yield (kg/ha), and numbers of redstem, small-flower umbrella sedge, and sprangletop in each plot are presented in Table 3 below.

ragweed = assay: Greenhouse synergy test MBI-005 + commercial herbicides (Example 11); conditions: 14 days
Procedure: as §2
Three other herbicides commonly used for field crops, glyphosate, glufosinate, synthetic version of bialaphos, and mesotrione were also tested for synergy with MBI-005 on crabgrass and ragweed.
as §3

barnyard grass [13] = assay: Post-emergent MBI-005 + rice herbicides on barnyard grass (Example 18); conditions: 14 days
Procedure: Ten seedlings in 2.5 cm square pots containing plant growth mix were sprayed to full coverage using a hand sprayer. Negative controls were sprayed with water. Pots were randomly placed in a growth room at 25° C. and 50% RH, and watered as necessary. Treatments were replicated three times and evaluated at 7 and 14 days for visual % damage, with 0% indicating no damage and 100% indicating plant death.
Synergistic effect were noted between MBI-005 and all three rice herbicides, 14 days after treatment. Synergy was calculated as the ratio of observed (E) to expected (E/Ee) percent control using Colby's formula.

crabgrass = assay: Crabgrass seed germination, MBI-005 + m-Tyrosine (Example 15); conditions: MBI-005 at 0.0035 mg/mL, 7 DAT
Procedure: Forty-five seeds were placed on a ring of blotter paper inside a 3 cm petri dish, covered with 10 cm^3 of inert baked clay particle media and supplied with 7 ml of 0.035 mg/ml MBI-005, a m-Tyrosine concentration, or a combination of MBI-005 and m-Tyrosine (Table 14). Water was used as a negative control. Petri dishes were randomly placed in a growth room at 25° C. and 50% RH. Treatments were replicated three times and germinated seeds were counted 7 days after application; water was added as necessary to maintain moisture levels inside each petri dish.
Synergy was calculated as the ratio of observed (E) to expected (E/Ee) reduction in germination using Colby's formula.

pigweed (Amaranthus sp.) = assay: Pot study, % control of pigweed (Example 2); conditions: 1.0 mg/mL
Procedure: A pot study is conducted to test the phytotoxicity of thaxtomin A on corn (Zea mays var. Early Sunglow) and wheat (Triticum aestivum var. PR1404). To confirm the activity on broadleaf weeds, pigweed (Amaranthus sp.) is planted in the same pot with either three corn or five wheat seeds, and sprayed simultaneously with the cereal test plants. The less than 3-inch tall plants grown under growth lights (12-h light/12-h dark) at 28° C. are sprayed with thaxtomin A solutions derived from a liquid culture of S. acidiscabies containing 0.5, and 1.0 mg thaxtomin A per mL of solvent (4% ethanol and 0.2% non-ionic surfactant). A solution of 4% ethanol +0.2% non-ionic surfactant without thaxtomin A is used as a control treatment. Each treatment is conducted in three replicates. Treated plants are kept at 28° C. under growth lights and observed at three time points—7, 14 and 21 days after treatment—for visual symptoms of phytotoxicity on corn and wheat and % control of pigweed.

[14] = MBI-005 0.125 mg/mL (bispyribac-sodium line)

Which results are given for CN1C(=O)[C@](O)(Cc2cccc(O)c2)N(C)C(=O)[C@@H]1Cc1c[nH]c2cccc([N+](=O)[O-])c12 [thaxtomin A]?
Rating at 0.1 mg/ml (Reduction of Germination) [1]: ++++ (95-100); Rating at 0.1 mg/ml (Reduction of Germination) [2]: ++++ (95-100); Rating at 0.1 mg/ml (Reduction of Germination) [3]: ++++ (95-100); Rating at 0.1 mg/ml (Reduction of Germination) [4]: ++++ (95-100); Rating at 0.1 mg/ml (Reduction of Germination) [5]: ++++ (95-100); Rating at 0.1 mg/ml (Reduction of Germination) [6]: ++++ (95-100); Rating at 0.1 mg/ml (Reduction of Germination) [7]: +++ (85-94); Rating at 0.1 mg/ml (Reduction of Germination) [8]: ++++ (95-100); Rating at 0.1 mg/ml (Reduction of Germination) [9]: ++++ (95-100); Rating at 0.1 mg/ml (Reduction of Germination) [10]: ++++ (95-100); Rating at 0.1 mg/ml (Reduction of Germination) [11]: ++++ (95-100); % Control MBI-005 (broad-leaf mustard; MBI-005 0.125 mg/mL (cyhalofop line)): 13.3%; % Control MBI-005 (broad-leaf mustard; MBI-005 0.125 mg/mL (fenoxaprop-p-ethyl line)): 45.8%; % Control MBI-005 (broad-leaf mustard; MBI-005 0.125 mg/mL (thiobencarb line)): 54.2%; % Control MBI-005 (broad-leaf mustard; MBI-005 0.25 mg/mL (bispyribac-sodium line)): 37.5%; % Control MBI-005 (broad-leaf mustard; MBI-005 0.25 mg/mL (propanil line)): 58.3%; % Control MBI-005 (sedge; MBI-005 0.01 mg/mL (cyhalofop line)): 20.0%; % Control MBI-005 (sedge; MBI-005 0.01 mg/mL (penoxsulam line)): 20.0%; % Control MBI-005 (sedge; MBI-005 0.02 mg/mL (fenoxaprop-p-ethyl line)): 70.8%; % Control MBI-005 (sedge; MBI-005 0.02 mg/mL (thiobencarb line)): 37.5%; % Control MBI-005 (barnyard grass [12]; [14]): 3.3%; % Control MBI-005 (barnyard grass [12]; MBI-005 0.125 mg/mL (penoxsulam line)): 17.5%; % Control MBI-005 (barnyard grass [12]; MBI-005 0.125 mg/mL (propanil line)): 10.0%; % Control MBI-005 (barnyard grass [12]; MBI-005 0.25 mg/mL (fenoxaprop-p-ethyl line)): 66.7%; % Control MBI-005 (barnyard grass [12]; MBI-005 0.25 mg/mL (thiobencarb line)): 41.7%; Yield (kg/ha) (Rice (variety M209); listed as Thaxtomin A): 7876b kg/ha; Yield (kg/ha) (Rice (variety M209); listed as thaxtomin): no effect; % Control MBI-005 (ragweed; [14]): 23.3%; % Control MBI-005 (ragweed; MBI-005 0.125 mg/mL (glufosinate line)): 37.5%; % Control MBI-005 (ragweed; MBI-005 0.125 mg/mL (glyphosate line)): 6.7%; % Control MBI-005 (barnyard grass [13]; MBI-005 12.5% of the label rate (Penoxsulam line)): 17.5%; % Control MBI-005 (barnyard grass [13]; MBI-005 25% of the label rate (Bispyribac-sodium line)): 41.7%; E (% controlled compared to UTC) (crabgrass): 14.3%; AVG No. germinated (crabgrass; forty-five seeds): 38.0; control of pigweed (pigweed (Amaranthus sp.)): complete control
